Patent publication US11932606B2, “Anti-cancer/anti-fibrosis compounds” (THE REGENTS OF THE UNIVERSITY OF CALIFORNIA, priority 2017, dated 2024)

Key:
HIPK2 = HIPK2 (Homo sapiens (Human), UniProt Q9H2X6); test: HIPK2 enzymatic activity inhibition (Z'-LYTE); assay type: biochemical; conditions: read-out: HIPK2 IC50
Protocol: HIPK2 Enzymatic Activity Inhibition: Determination of IC50 Values for Selected Compounds
The half maximal inhibitory concentration (IC50) with respect to HIPK2 inhibition was determined for the compounds of the invention by using Z′-LYTE™ from ThermoFisher Scientific's SelectScreen™ Biochemical Kinase Profiling Service (Waltham, MA). Compounds were screened in 1% DMSO (final) in the well. For 10 point titrations, 3-fold serial dilutions were conducted from the starting concentration. The 2×HIPK2/Ser/Thr 09 mixture was prepared in 50 mM HEPES pH 7.5, 0.01% BRIJ-35, 10 mM MgCl2, 1 mM EGTA.
100 nL of 100× test compound in 100% DMSO, 2.4 uL of kinase buffer (50 mM HEPES pH 7.5, 0.01% BRIJ-35, 10 mM MgCl2, 1 mM EGTA), 5 uL of 2×HIPK2/Ser/Thr 09 mixture, and 2.5 uL of 4×ATP solution were mixed and agitated for 30 seconds. Then the Kinase Reaction was incubated at room temperature for 60 minutes. […] After 30 second of plate shake, the reaction plate was incubated for another 60 min at room temperature. Then the plate was read on a fluorescence plate reader (CLARIOstar, BMG Labtech, Germany) as plate reader and data was analyzed using XLfit from IDBS.

CSNK2A1 (CK2 alpha 1) = CSNK2A1 (CK2 alpha 1) (Homo sapiens (Human), UniProt P68400); test: CK2 alpha 1 enzymatic activity inhibition (Z'-LYTE); assay type: biochemical; conditions: read-out: CK2a IC50
Protocol: CK2 Alpha 1 Enzymatic Activity Inhibition: Determination of IC50 Values for Selected Compounds
The half maximal inhibitory concentration (IC50) with respect to CK2 alpha 1 inhibition was determined for the compounds of the invention by using Z′-LYTE™ from ThermoFisher Scientific's SelectScreen™ Biochemical Kinase Profiling Service (Waltham, MA). Compounds were screened in 1% DMSO (final) in the well. For 10 point titrations, 3-fold serial dilutions were conducted from the starting concentration. The 2×CSNK2A1 (CK2 alpha 1)/Ser/Thr 11 mixture is prepared in 50 mM HEPES pH 7.5, 0.01% BRIJ-35, 10 mM MgCl2, 1 mM EGTA. The black 384-well plate (Corning Cat. #4514) were used for the assay. 100 nL of 100× test compound in 100% DMSO, 2.4 uL of kinase buffer (50 mM HEPES pH 7.5, 0.01% BRIJ-35, 10 mM MgCl2, 1 mM EGTA), 5 uL of 2×CSNK2A1 (CK2 alpha 1)/Ser/Thr 11 mixture, and 2.5 uL of 4×ATP solution were mixed and agitated for 30 seconds. Then the Kinase Reaction was incubated at room temperature for 60 minutes. The final 10 uL Kinase Reaction consisted of 0.68-25.7 ng CSNK2A1 (CK2 alpha 1) and 2 μM Ser/Thr 11 in 50 mM HEPES pH 7.5, 0.01% BRIJ-35, 10 mM MgCl2, 1 mM EGTA. After the 1 hour Kinase Reaction incubation, 5 uL of a 1:16 dilution of Development Reagent B is added. After 30 second of plate shake, the reaction plate was incubated for another 60 min at room temperature. Then the plate was read on a fluorescence plate reader (CLARIOstar, BMG Labtech, Germany) and data was analyzed using XLfit from IDBS. The dose response curve was curve fit to model number 205 (sigmoidal dose-response model).

Chain of CSNK2A1 (CK2 alpha 1) (P68400 whole entry): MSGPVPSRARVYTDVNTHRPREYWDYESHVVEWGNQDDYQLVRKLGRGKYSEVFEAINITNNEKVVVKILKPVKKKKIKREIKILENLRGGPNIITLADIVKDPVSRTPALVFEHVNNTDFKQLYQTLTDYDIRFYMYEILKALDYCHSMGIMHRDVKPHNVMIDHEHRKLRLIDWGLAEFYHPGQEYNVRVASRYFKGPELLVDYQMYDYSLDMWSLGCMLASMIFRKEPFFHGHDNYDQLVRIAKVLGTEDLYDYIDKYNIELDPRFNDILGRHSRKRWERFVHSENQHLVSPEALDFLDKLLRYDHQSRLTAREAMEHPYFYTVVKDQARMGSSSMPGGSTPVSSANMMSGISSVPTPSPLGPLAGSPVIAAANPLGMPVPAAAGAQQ
Chain of HIPK2 (Q9H2X6 whole entry): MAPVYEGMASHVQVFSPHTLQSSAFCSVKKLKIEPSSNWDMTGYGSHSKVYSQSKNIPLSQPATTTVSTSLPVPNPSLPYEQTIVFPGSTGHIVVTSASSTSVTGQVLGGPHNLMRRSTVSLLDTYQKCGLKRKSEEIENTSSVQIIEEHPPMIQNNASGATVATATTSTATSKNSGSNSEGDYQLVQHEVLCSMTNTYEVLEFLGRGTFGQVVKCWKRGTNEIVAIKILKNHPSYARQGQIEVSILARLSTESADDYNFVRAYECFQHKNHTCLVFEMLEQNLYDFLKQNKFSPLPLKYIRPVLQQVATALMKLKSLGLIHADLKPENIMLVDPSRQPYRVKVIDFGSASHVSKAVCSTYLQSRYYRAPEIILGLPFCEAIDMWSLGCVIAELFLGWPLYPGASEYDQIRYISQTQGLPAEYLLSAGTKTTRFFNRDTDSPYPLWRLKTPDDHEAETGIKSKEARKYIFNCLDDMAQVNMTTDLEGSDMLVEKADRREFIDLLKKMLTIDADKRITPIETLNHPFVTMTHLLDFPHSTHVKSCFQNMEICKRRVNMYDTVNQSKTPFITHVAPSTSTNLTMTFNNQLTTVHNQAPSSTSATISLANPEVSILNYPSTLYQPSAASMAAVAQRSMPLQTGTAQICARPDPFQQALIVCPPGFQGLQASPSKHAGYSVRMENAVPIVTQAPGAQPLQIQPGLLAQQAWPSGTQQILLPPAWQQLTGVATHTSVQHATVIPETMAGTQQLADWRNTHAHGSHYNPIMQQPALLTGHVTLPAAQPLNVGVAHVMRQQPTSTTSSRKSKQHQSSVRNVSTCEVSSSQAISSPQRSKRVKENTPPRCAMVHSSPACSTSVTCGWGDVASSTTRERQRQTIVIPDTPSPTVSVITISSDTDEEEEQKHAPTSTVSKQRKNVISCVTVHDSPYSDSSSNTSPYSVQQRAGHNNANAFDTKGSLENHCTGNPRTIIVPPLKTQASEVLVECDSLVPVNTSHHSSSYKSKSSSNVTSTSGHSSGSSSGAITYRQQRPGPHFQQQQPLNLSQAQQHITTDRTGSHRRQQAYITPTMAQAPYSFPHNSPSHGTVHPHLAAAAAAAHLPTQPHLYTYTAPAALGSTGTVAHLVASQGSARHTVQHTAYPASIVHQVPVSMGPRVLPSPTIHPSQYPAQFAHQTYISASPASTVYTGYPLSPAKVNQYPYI

IC50 (HIPK2): < 0.3 µM
IC50 (CSNK2A1 (CK2 alpha 1)): < 0.3 µM
Compound: Nc1nccc2c(Br)cc3cc(C(=O)[O-])ccc3c12.[Na+] [Compound 29, Sodium 1-amino-5-bromobenzo[h]isoquinoline-8-carboxylate]
